We go through five molecules from patent EP1036075B1, “SUBSTITUTED THIAZOLIDINEDIONE AND OXAZOLIDINEDIONE HAVING ANTIDIABETIC, HYPOLIPIDEMIA AND ANTIHYPERTENSIVE PROPERTIES” (Dr. Reddy's Laboratories Ltd., priority 1997, dated 1998).

In the test the test system is C57BL/KsJ-db/db mice. The test can be described thus: Blood sugar and triglycerides lowering activity in db/db mice, oral gavage daily for 6 days. The following applies: male db/db mice; for Maximum reduction in blood glucose level (%) / Triglyceride lowering (%): oral gavage daily for 6 days. It counts as in vivo. From the text:
Mutation in colonies of laboratory animals and different sensitivities to dietary regimens have made the development of animal models with non-insulin dependent diabetes associated with obesity and insulin resistance possible. Genetic models such as db/db and ob/ob (See Diabetes, (1982) 31(1) : 1- 6) in mice and fa/fa and zucker rats have been developed by the various laboratories for understanding the pathophysiology of disease and testing the efficacy of new antidiabetic compounds (Diabetes, (1983) 32: 830-838; Annu. Rep. Sankyo Res. Lab. (1994) 46 : 1-57). The homozygous animals, C57 BL/KsJ-db/db mice developed by Jackson Laboratory, US, are obese. hyperglycemic, hyperinsulinemic and insulin resistant (J. Clin. Invest., (1990) 85 : 962-967), whereas heterozygous are lean and normoglycemic. In db/db model, mouse progressively develops insulinopenia with age, a feature commonly observed in late stages of human type II diabetes when blood sugar levels are insufficiently controlled. The state of pancreas and its course vary according to the models. Since this model resembles that of type II diabetes mellitus, the compounds of the present invention were tested for blood sugar and triglycerides lowering activities.
Male C57BL/KsJ-db/db mice of 8 to 14 weeks age, having body weight range of 35 to 60 grams, procured from the Jackson Laboraotory, USA, were used in the experiment. The mice were provided with standard feed (National Institute of Nutrition, Hyderabad, India) and acidified water, ad libitum. The animals having more than 300 mg / dl blood sugar were used for testing. The number of animals in each group was 4.
The random blood sugar and triglyceride levels were measured by collecting blood (100 µl) through orbital sinus, using heparinised capillary in tubes containing EDTA which was centrifuged to obtain plasma. The plasma glucose and triglycerides levels were measured spectrometrically, by glucose oxidase and glycerol-3-PO4 oxidase/peroxidase enzyme (Dr. Reddy's Lab. Diagnostic Division Kits, Hyderabad, India) methods respectively. On 6th day the blood samples were collected one hour after administration of test compounds / vehicle for assessing the biological activity.
Test compounds were suspended on 0.25 % carboxymethyl cellulose and administered to test group at a dose of 1 mg to 100 mg / kg through oral gavage daily for 6 days. The control group received vehicle (dose 10 ml / kg).

With `Cc1c(C)c2c(c(C)c1O)CCC(C)(COc1ccc(CC3SC(=O)NC3=O)cc1)O2` (stereo not drawn) [Troglitazone, reference compound], where the note is “100 mg / kg, daily dose, on 6th day”, the “reduction in random blood sugar level” value was determined as 28%.

Regarding `CN1C(=O)c2ccccc2NC1COc1ccc(CC2SC(=O)NC2=O)cc1` (stereo not drawn) [Example 12, 5-[4-[[3-Methyl-4-oxo-1,2,3,4-tetrahydro-2-quinazolinyl]methoxy]phenylmethyl] thiazolidin-2,4-dione], for the setting “dose 3 mg/kg/day”, the “Maximum reduction in blood glucose level (%)” value (from here on “Maximum reduction … (%)”) worked out at 55% and the “Triglyceride lowering (%)” value came out at 35%.

Turning to `CN1C(=O)c2ccccc2N(C)C1COc1ccc(CC2SC(=O)NC2=O)cc1` (stereo not drawn) [Example 11, 5-[4-[[1,3-Dimethyl-4-oxo-1,2,3,4-tetrahydro-2-quinazolinyl]methoxy]phenylmethyl) thiazolidin-2,4-dione], under “dose 1 mg/kg/day”, the “Maximum reduction … (%)” value turned out to be 34% and the “Triglyceride lowering (%)” value is 28%.

In the case of `O=C1NC(=O)C(Cc2ccc(OCC3NC(=O)c4ccccc4O3)cc2)S1` (stereo not drawn) [Example 3, 5-[4-1[[4-Oxo-3,4-dihydro-(2H)-1,3-benzoxazine-2-yl]methoxy]phenylmethyl]thiazotidin-2,4-dione], for the setting “dose 10 mg/kg/day”, the “Maximum reduction … (%)” value is 41% and the “Triglyceride lowering (%)” value came out at 48%.

As for `CN1C(=O)c2ccccc2OC1COc1ccc(CC2SC(=O)NC2=O)cc1` (stereo not drawn) [Example 4, 5-[4-[[3-Methyl-4-oxo-3,4-dihydro-(2H)-1,3-benzoxazine-2-yl]methoxy]phenylmethyl] thiazolidin-2,4-dione], where the note is “dose 10 mg/kg/day”, the “Maximum reduction … (%)” value turned out to be 48% and the “Triglyceride lowering (%)” value was determined as 42%.
